Results from US20250313563A1, “GLYCOGEN SYNTHASE KINASE 3 INHIBITORS AND USES THEREOF” (The Broad Institute, Inc., priority 2022, published 2025).
pIC50: −log10 of the molar value. Read-outs that look alike come from different tables or passages of the source.

Assays:
[1] = biological target: GSK3α (GST-full length GSK3α) (Homo sapiens (Human), UniProt P49840); assay: GSK3α TR-FRET kinase assay; type: biochemical
Summary of the method: (§1)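 IC50 came from the normalized 665/615 nm TR-FRET ratio plotted against log compound concentration. The Tb-labelled pSer641 antibody and streptavidin-d2 detected phosphorylation of biotinylated S645-primed glycogen synthase peptide (200 nM) by 1 nM full-length GST-kinase. ATP was 4 μM for α, 2 μM for β, or 1 mM.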

[2] = biological target: GSK3b (GST-full length GSK3b) (Homo sapiens (Human), UniProt P49841); assay: GSK3b TR-FRET kinase assay; type: biochemical
Sequence of GSK3b (GST-full length GSK3b) (P49841 whole entry): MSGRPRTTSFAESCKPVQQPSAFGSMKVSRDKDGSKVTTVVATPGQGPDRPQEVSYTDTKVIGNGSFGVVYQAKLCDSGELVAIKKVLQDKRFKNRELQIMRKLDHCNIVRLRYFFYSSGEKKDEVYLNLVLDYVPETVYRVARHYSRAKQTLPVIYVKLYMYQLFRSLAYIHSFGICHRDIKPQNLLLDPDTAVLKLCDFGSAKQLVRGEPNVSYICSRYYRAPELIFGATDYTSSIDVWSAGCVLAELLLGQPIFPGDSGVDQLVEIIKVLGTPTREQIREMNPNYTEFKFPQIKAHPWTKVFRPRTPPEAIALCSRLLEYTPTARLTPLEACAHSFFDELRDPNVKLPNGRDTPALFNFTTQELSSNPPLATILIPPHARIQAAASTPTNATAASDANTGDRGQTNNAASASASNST
Summary of the method: as §1

[3] = 1 nM GSK3α, 4 μM ATP, 30 minute preincubation, Table 16, read-out: GSK3-A TR-FRET BIOCHEMICAL (TR-FRET), IC50
[4] = 1 nM GSK3b, 2 μM ATP, 30 minute preincubation, Table 16, read-out: GSK3-B TR-FRET BIOCHEMICAL (TR-FRET), IC50
[5] = read-out: GSK3-A (TR-FRET 1 mM ATP), GMean, IC50, 1 mM ATP, geometric mean
[6] = read-out: GSK3-B (TR-FRET 1 mM ATP), GMean, IC50, 1 mM ATP, geometric mean
[7] = 1 nM GSK3α, 4 μM ATP, 30 minute preincubation, read-out: GSK3-A TR-FRET BIOCHEMICAL (TR-FRET), IC50
[8] = 1 nM GSK3b, 2 μM ATP, 30 minute preincubation, read-out: GSK3-B TR-FRET BIOCHEMICAL (TR-FRET), IC50
[9] = 1 nM GSK3α, 4 μM ATP, 30 minute preincubation, Table 16, read-out: GSK3-A TR-FRET BIOCHEMICAL (TR-FRET)
[10] = 1 nM GSK3b, 2 μM ATP, 30 minute preincubation, Table 16, read-out: GSK3-B TR-FRET BIOCHEMICAL (TR-FRET)
[11] = GSK3-A (TR-FRET 1 mM ATP), GMean, IC50, 1 mM ATP, geometric mean
[12] = GSK3-B (TR-FRET 1 mM ATP), GMean, IC50, 1 mM ATP, geometric mean

Sequence of GSK3α (GST-full length GSK3α) (P49840 whole entry): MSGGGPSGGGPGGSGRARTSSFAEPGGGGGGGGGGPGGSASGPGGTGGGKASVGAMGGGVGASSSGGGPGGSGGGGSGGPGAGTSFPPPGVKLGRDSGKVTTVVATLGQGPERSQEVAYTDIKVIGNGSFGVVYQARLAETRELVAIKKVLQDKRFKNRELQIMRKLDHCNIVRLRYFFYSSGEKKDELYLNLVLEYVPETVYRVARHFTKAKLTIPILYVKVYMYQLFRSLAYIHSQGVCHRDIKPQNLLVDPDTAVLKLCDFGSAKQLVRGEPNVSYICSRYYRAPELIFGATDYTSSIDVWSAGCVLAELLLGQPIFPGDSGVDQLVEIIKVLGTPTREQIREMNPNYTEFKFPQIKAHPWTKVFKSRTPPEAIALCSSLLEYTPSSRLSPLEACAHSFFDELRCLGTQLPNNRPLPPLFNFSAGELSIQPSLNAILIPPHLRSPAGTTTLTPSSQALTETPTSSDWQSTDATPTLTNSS

SMILES | pIC50 [1, 3] | pIC50 [2, 4] | further results
CCC1(c2cccc(-c3cn(C)nc3C)c2)C2=C(CC(C)(C)CC2=O)Nc2n[nH]c(C)c21 (centres unmarked) [Compound 913034] | 5.30 to 6.00 | < 5.30 | –
CC[C@]1(c2cccc(-c3cn(C)nc3C)c2)C2=C(CC(C)(C)CC2=O)Nc2n[nH]c(C)c21 [Compound 913035] | ≥ 7.00 | ≥ 7.00 | pIC50 [1, 5]: ≥ 7.00; pIC50 [2, 6]: 6.00 to 7.00
CCC1(c2cccc(-c3cnn4c3CCCC4)c2)C2=C(CC(C)(C)CC2=O)Nc2n[nH]c(C)c21 (centres unmarked) [Compound 913036] | ≥ 7.00 | ≥ 7.00 | pIC50 [1, 5]: ≥ 7.00; pIC50 [2, 6]: 6.00 to 7.00
CC[C@]1(c2cccc(-c3cncn3C)c2)C2=C(CC(C)(C)CC2=O)Nc2n[nH]c(C)c21 [Compound 913037] | ≥ 7.00 | 6.00 to 7.00 | –
CCC1(c2cccc(-c3cnn(C)c3)c2)C2=C(CC(C)(C)CC2=O)Nc2n[nH]c(C)c21 (centres unmarked) [Compound 913038] | 6.00 to 7.00 | 5.30 to 6.00 | –
CCC1(c2cccc(-c3ccn(C)n3)c2)C2=C(CC(C)(C)CC2=O)Nc2n[nH]c(C)c21 (centres unmarked) [Compound 913039] | 5.30 to 6.00 | < 5.30 | –
CC[C@]1(c2cccc(-c3cn(C)nc3C(C)C)c2)C2=C(CC(C)(C)CC2=O)Nc2n[nH]c(C)c21 [Compound 913040] | 6.00 to 7.00 | 5.30 to 6.00 | –
CC[C@]1(c2cccc(-c3cnn(CCOC)c3)c2)C2=C(CC(C)(C)CC2=O)Nc2n[nH]c(C)c21 [Compound 913042] | < 5.30 | < 5.30 | –
CC[C@]1(c2cccc(-c3c(C)nn(C)c3C)c2)C2=C(CC(C)(C)CC2=O)Nc2n[nH]c(C)c21 [Compound 913043] | ≥ 7.00 | ≥ 7.00 | pIC50 [1, 5]: ≥ 7.00; pIC50 [2, 6]: 6.00 to 7.00
CCC1(c2cccc(-c3cn[nH]c3)c2)C2=C(CC(C)(C)CC2=O)Nc2n[nH]c(C)c21 (centres unmarked) [Compound 913044] | 6.00 to 7.00 | 6.00 to 7.00 | –
CCC1(c2cccc(-c3cnn(C)c3C)c2)C2=C(CC(C)(C)CC2=O)Nc2n[nH]c(C)c21 (centres unmarked) [Compound 913045] | – | – | pIC50 [1, 5]: ≥ 7.00; pIC50 [2, 6]: 6.00 to 7.00
CC[C@]1(c2cccc(-c3ccncc3C)c2)C2=C(CC(C)(C)CC2=O)Nc2n[nH]cc21 [Compound 913047] | ≥ 7.00 | ≥ 7.00 | pIC50 [1, 5]: ≥ 7.00; pIC50 [2, 6]: 6.00 to 7.00
CCC1(c2cccc(-c3ccnc(C(F)(F)F)c3)c2)C2=C(CC(C)(C)CC2=O)Nc2n[nH]c(C)c21 (centres unmarked) [Compound 913049] | 6.00 to 7.00 | < 5.30 | –
CC[C@]1(c2cccc(-c3cc(C)ncc3C)c2)C2=C(CC(C)(C)CC2=O)Nc2n[nH]c(C)c21 [Compound 913050] | ≥ 7.00 | ≥ 7.00 | pIC50 [1, 5]: ≥ 7.00; pIC50 [2, 6]: 6.00 to 7.00
CCC1(c2cccc(-c3ccnc(C)c3)c2)C2=C(CC(C)(C)CC2=O)Nc2n[nH]c(C)c21 (centres unmarked) [Compound 913051] | 6.00 to 7.00 | < 5.30 | –
CCC1(c2cccc(-c3ccncc3F)c2)C2=C(CC(C)(C)CC2=O)Nc2n[nH]c(C)c21 (centres unmarked) [Compound 913052] | ≥ 7.00 | ≥ 7.00 | pIC50 [1, 5]: ≥ 7.00; pIC50 [2, 6]: 6.00 to 7.00
CCC1(c2cccc(-c3ccnc(OC)c3)c2)C2=C(CC(C)(C)CC2=O)Nc2n[nH]c(C)c21 (centres unmarked) [Compound 913053] | ≥ 7.00 | ≥ 7.00 | –
CC1(C)CC(=O)C2=C(C1)Nc1n[nH]cc1C21CCC2(CCC(=O)N2)CC1 (centres unmarked) [Compound 913056] | – | – | pIC50 [1, 7]: 6.00 to 7.00; pIC50 [2, 8]: 5.30 to 6.00
CC(=O)N1CC2(C1)CC1(CO2)C2=C(CC(C)(C)CC2=O)Nc2n[nH]cc21 (centres unmarked) [Compound 913058] | – | – | pIC50 [1, 7]: ≥ 7.00; pIC50 [1, 5]: ≥ 7.00; pIC50 [2, 8]: ≥ 7.00; pIC50 [2, 6]: 6.00 to 7.00
CCC1(c2cccc(N(C)c3cccc(OC)n3)c2)C2=C(CC(C)(C)CC2=O)Nc2n[nH]cc21 (centres unmarked) [Compound 913121] | ≥ 7.00 | 6.00 to 7.00 | –
CCC1(c2cccc(N(C)c3cccc(C(F)(F)F)n3)c2)C2=C(CC(C)(C)CC2=O)Nc2n[nH]cc21 (centres unmarked) [Compound 913122] | 6.00 to 7.00 | 6.00 to 7.00 | –
CCC1(c2cccc(S(=O)(=O)c3ccccc3)c2)C2=C(CC(C)(C)CC2=O)Nc2n[nH]cc21 (centres unmarked) [Compound 913123] | ≥ 7.00 | ≥ 7.00 | pIC50 [1, 5]: ≥ 7.00; pIC50 [2, 6]: 6.00 to 7.00
CCC1(c2cc(N(C)C(C)=O)ccc2F)C2=C(CC(C)(C)CC2=O)Nc2n[nH]cc21 (centres unmarked) [Compound 913124] | 6.00 to 7.00 | 6.00 to 7.00 | –
CCC1(c2cccc(N(C)C(=O)CN3CCCC3)c2)C2=C(CC(C)(C)CC2=O)Nc2n[nH]cc21 (centres unmarked) [Compound 913125] | ≥ 7.00 | 6.00 to 7.00 | –
CC1(C)CC(=O)C2=C(C1)Nc1n[nH]cc1C21CCCSCC1 (centres unmarked) [Compound 913126] | – | – | pIC50 [1, 9]: ≥ 7.00; pIC50 [2, 10]: 6.00 to 7.00

SMILES | pIC50 [1, 3] | pIC50 [2, 4] | further results
CC1(C)CC(=O)C2=C(C1)Nc1n[nH]cc1C21CCN(S(=O)(=O)C2CCOCC2)CC1 [Compound 913127] | ≥ 7.00 | ≥ 7.00 | pIC50 [1, 11]: ≥ 7.00; pIC50 [2, 12]: 6.00 to 7.00
CC1(C)CC(=O)C2=C(C1)Nc1n[nH]cc1C21CCN(S(=O)(=O)C2CCCCC2)CC1 [Compound 913128] | ≥ 7.00 | ≥ 7.00 | pIC50 [1, 11]: ≥ 7.00; pIC50 [2, 12]: 6.00 to 7.00
CC(C)S(=O)(=O)N1CCC2(CC1)C1=C(CC(C)(C)CC1=O)Nc1n[nH]cc12 [Compound 913129] | ≥ 7.00 | ≥ 7.00 | pIC50 [1, 11]: ≥ 7.00; pIC50 [2, 12]: 6.00 to 7.00
CCC1(c2cccc(S(=O)(=O)C(C)C)c2)C2=C(CC(C)(C)CC2=O)Nc2n[nH]cc21 (centres unmarked) [Compound 913134] | 6.00 to 7.00 | 5.30 to 6.00 | –
CCC1(c2cccc(S(=O)(=O)C(C)C)c2)C2=C(CC(C)(C)CC2=O)Nc2n[nH]cc21 (centres unmarked) [Compound 913135] | ≥ 7.00 | ≥ 7.00 | pIC50 [1, 5]: ≥ 7.00; pIC50 [2, 6]: 6.00 to 7.00
Cc1cccc2c1CC[C@]21C2=C(CC(C)(C)CC2=O)Nc2n[nH]cc21 [Compound 913136] | ≥ 7.00 | 6.00 to 7.00 | –
Cc1cccc2c1CC[C@@]21C2=C(CC(C)(C)CC2=O)Nc2n[nH]cc21 [Compound 913137] | < 5.30 | < 5.30 | –
CC1(C)CC(=O)C2=C(C1)Nc1n[nH]cc1[C@]21C[C@@]2(CCN(CC(F)F)C2)C1 [Compound 913139] | – | – | pIC50 [1, 7]: 6.00 to 7.00; pIC50 [2, 8]: 6.00 to 7.00
CC[C@@]1(c2cccc(N3CCC3(C)C)c2)C2=C(CC(C)(C)CC2=O)Nc2n[nH]cc21 [Compound 913140] | ≥ 7.00 | 6.00 to 7.00 | –
CCC1(c2cccc(N3CCC3(C)C)c2)C2=C(CC(C)(C)CC2=O)Nc2n[nH]cc21 (centres unmarked) [Compound 913141] | 6.00 to 7.00 | 5.30 to 6.00 | –
CCC1(c2cccc(C(F)(F)F)c2)C2=C(CNC2=O)Nc2n[nH]cc21 (centres unmarked) [Compound 913156] | – | – | pIC50 [1, 9]: 6.00 to 7.00; pIC50 [2, 10]: < 5.30
CCC1(c2cccc(C(C)(C)F)c2)C2=C(CCN(C)C2=O)Nc2n[nH]cc21 (centres unmarked) [Compound 913178] | – | – | pIC50 [1, 7]: 6.00 to 7.00; pIC50 [2, 8]: 5.30 to 6.00
CC1(C)CC(=O)C2=C(C1)Nc1n[nH]cc1[C@]21CO[C@H](C2CC2)C1 [Compound 913184] | 6.00 to 7.00 | 5.30 to 6.00 | –
CCC1(c2cccc(C(F)(F)F)c2)C2=C(Nc3n[nH]cc31)C(C)(C)N(C)C2=O (centres unmarked) [Compound 913198] | – | – | pIC50 [1, 9]: ≥ 7.00; pIC50 [2, 10]: 6.00 to 7.00
CC[C@@H]1C[C@@]2(CO1)C1=C(CC(C)(C)CC1=O)Nc1n[nH]cc12 [Compound 913213] | – | – | pIC50 [1, 9]: 6.00 to 7.00; pIC50 [2, 10]: 5.30 to 6.00
CC[C@H]1C[C@@]2(CO1)C1=C(CC(C)(C)CC1=O)Nc1n[nH]cc12 [Compound 913214] | – | – | pIC50 [1, 9]: 6.00 to 7.00; pIC50 [2, 10]: 5.30 to 6.00
CC[C@@H]1C[C@]2(CO1)C1=C(CC(C)(C)CC1=O)Nc1n[nH]cc12 [Compound 913215] | – | – | pIC50 [1, 9]: 6.00 to 7.00; pIC50 [2, 10]: 5.30 to 6.00
CC[C@H]1C[C@]2(CO1)C1=C(CC(C)(C)CC1=O)Nc1n[nH]cc12 [Compound 913216] | – | – | pIC50 [1, 9]: 6.00 to 7.00; pIC50 [2, 10]: 6.00 to 7.00
CC1(C)CC(=O)C2=C(C1)Nc1n[nH]cc1C21CCCc2ccccc21 (centres unmarked) [Compound 913219] | ≥ 7.00 | 6.00 to 7.00 | –
CC[C@]1(c2cccc(-c3cc(C)nc(C)c3)c2)C2=C(CC(C)(C)CC2=O)Nc2n[nH]cc21 [Compound 913223] | < 5.30 | < 5.30 | –
CCC1(c2cccc(Br)c2)C2=C(CC(C)NC2=O)Nc2n[nH]cc21 (centres unmarked) [Compound 913225] | – | – | pIC50 [1, 7]: 6.00 to 7.00; pIC50 [2, 8]: 5.30 to 6.00
CC1(C)CC(=O)C2=C(C1)Nc1n[nH]cc1C21CCN(S(=O)(=O)c2ccc3c(c2)CCO3)CC1 [Compound 913251] | – | – | pIC50 [1, 9]: ≥ 7.00; pIC50 [2, 10]: ≥ 7.00
CCC1(c2cccc(N(C)c3ccc(OC)nc3)c2)C2=C(CC(C)(C)CC2=O)Nc2n[nH]cc21 (centres unmarked) [Compound 913252] | 6.00 to 7.00 | 6.00 to 7.00 | –
CCC1(c2cccc(NS(C)(=O)=O)c2)C2=C(CC(C)(C)CC2=O)Nc2n[nH]cc21 (centres unmarked) [Compound 913253] | ≥ 7.00 | ≥ 7.00 | –
